Data published in patent US10328012B2, “Methods for treating skin” (AVON PRODUCTS, INC., priority 2015, dated 2019).
Entries after “also recorded” stand apart in the source; their conditions may differ.

What was measured:
[1] = test system: human dermal fibroblast (HDF) cells; test: HA in human dermal fibroblasts, daily vs pulsed treatment (Example 17); type: cell-based; settings: 12 days; pulsed uses half as much active
Method: A series of experiments was conducted to assess the effects of different treatment regimens of active ingredients shown in Table 9 on the production of hyaluronic acid (HA) in human dermal fibroblast (HDF) cells. Two different treatment regimens were assessed: (1) active ingredient A applied to cells for 12 consecutive days; and (2) active ingredient applied to cells for 2 consecutive days followed by application of media not containing active ingredient for two consecutive days repeatedly until treatment is applied for 12 consecutive days. […] After reaching about 75% confluence, cells were transferred into DMEM media without FBS, and incubated for 4-6 hours. Different wells were assigned to one of treatment regimens (1)-(2) as described above, with six wells allocated to each treatment regimen. All active ingredients were prepared as emulsions and applied directly to the HDF cells. The specific active ingredients used in each of the two treatment regimens are provided below in Table 10. Following treatment, cells were collected and the amount of hyaluronic acid (HA) secreted from the cells was measured using a commercially available HA assay (available from […] Inc., CO).

[2] = test system: Human dermal fibroblast cells; test: Pro-collagen I secreted by human dermal fibroblasts, HTRF human pro-collagen I kit (Example 1); type: cell-based; settings: 0.0001% phytol alone or 1 μM retinol alone for 16 days; decline after day 13 despite continuing treatment
Method: Human dermal fibroblast cells were grown in a 6-well plate in DMEM media (available from CORNING, N.Y.) supplemented with 10% Fetal Bovine Serum (FBS) and L-glutamine (1.5×10^5 cells/plate) overnight. After reaching about 75% confluence, cells were transferred into DMEM media without FBS and incubated for 4-6 hours. Next, the cells were treated with either 0.0001% phytol or 1 μM retinol. Treatment with either phytol alone, or retinol alone was performed in DMEM media without FBS for 16 days. For sequential treatments, the cells were treated with 0.0001% phytol for 6 days followed by 1 μM retinol for 10 days, or with 1 μM retinol for 6 days, followed by 0.0001% phytol for 10 days. Every other day, media were collected and cells were re-treated with phytol or retinol in the same fashion. After treatment, the amount of collagen secreted into the culture media was determined using the HTRF human pro-collagen I kit (available from CISBIO, Inc).

Row | Compound | production of hyaluronic acid, pulsed treatment compared with daily treatment [1] | pro-collagen I production as a function of treatment time [2]
1 | O=C(O)CO [Glycolic Acid] | only slightly less effective | –
2 | C/C(=C\CO)CCC[C@H](C)CCC[C@H](C)CCCC(C)C [Phytol] | significantly more production of hyaluronic acid | declines; also recorded: plateau in effectiveness over time
3 | CC1=C(/C=C/C(C)=C/C=C/C(C)=C/CO)C(C)(C)CCC1 [Retinol, reference compound] | significantly more production of hyaluronic acid | declines; also recorded: plateau in effectiveness over time
